Measurements from patent publication US12173088B2, “Anti-microbial peptides” (priority 2018, dated 2024).
Converted amounts (≈) assume the structure as drawn. Square brackets hold non-standard residues; d marks the D form. Peptide text beside a SMILES is read from it.

What was measured:
S. aureus M838-17 (MRSA) = assay: microbe, parasite or virus in culture; assay type: cell-based, Staphylococcus aureus; settings: M838-17; read-out: MIC S. aureus M838-17 (MRSA)
Method in brief: (§1)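 Broth microdilution: log-phase cultures in tryptic soy broth diluted to OD600 0.001, exposed to two-fold diluted peptides at 37° C overnight, growth read at 630 nm. Medium effects on S. aureus USA300 tested with up to 200 mM NaCl, 2 mM CaCl2, 5-10% human serum, mouse plasma, fluids or tissue homogenate supernatants.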

S. aureus USA300 [1] = assay: microbe, parasite or virus in culture; assay type: cell-based, Staphylococcus aureus
Method in brief: as §1

P. aeruginosa PAO1 = assay type: cell-based, Pseudomonas aeruginosa; settings: PAO1
Method in brief: (§2)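 Broth microdilution in tryptic soy broth: log-phase cultures (OD600 ≈0.5) diluted to OD600 0.001, given two-fold peptide dilutions, incubated overnight at 37° C. Growth read at 630 nm.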

E. coli ATCC 25922 = assay type: cell-based, Escherichia coli; settings: ATCC 25922
Method in brief: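 Broth microdilution: log-phase E. coli diluted to OD600 0.001 and exposed to two-fold serial peptide dilutions overnight at 37 °C. Growth read at 630 nm.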

Hemolytic assay = assay type: cell-based, human; settings: human, human red blood cells, 2% (v/v)
Method in brief: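 Washed hRBCs (2% v/v) exposed to peptide for 1 h at 37 °C, then centrifuged and hemoglobin in supernatant read at 545 nm. Lysis normalized to Triton X-100 (2% or 1%; 100%) and PBS (0%); HL50 is the peptide concentration giving 50% lysis, and CSI is HL50/MIC.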

E. faecium V286-17 (VRE) = assay: microbe, parasite or virus in culture; assay type: cell-based, Enterococcus faecium; settings: V286-17 (VRE)
Method in brief: as §1

P. aeruginosa E411-17 = assay: microbe, parasite or virus in culture; assay type: cell-based, Pseudomonas aeruginosa; settings: E411-17; read-out: MIC P. aeruginosa E411-17
Method in brief: as §1

K. pneumoniae E406-17 = assay: microbe, parasite or virus in culture; assay type: cell-based, Klebsiella pneumoniae; settings: E406-17; read-out: MIC K. pneumoniae E406-17
Method in brief: as §2

E. coli ampC E416-7 = assay type: cell-based, Escherichia coli; settings: Table 7
Source text: The bacterial strains used include the Gram-positive strains Staphylococcus aureus USA300 LAC, S. epidermidis 1457, and Bacillus subtilis 168, as well as the Gram-negative isolates Escherichia coli K12 and Acinetobacter baumannii B2367-12. Additional, drug resistance strains include Gram-positive Enterococcus faecium V286-17 (VRE) and S. aureus M838-17 (MRSA) and Gram-negative E. coli E423-17, E. coli E416-17 (ampC), and P. aeruginosa E411-17. Bacteria were cultivated in tryptic soy broth (TSB) (BD Bioscience, MD).
The antibacterial activity of peptides was evaluated using a standard broth microdilution protocol with minor modifications as described (Mishra, et al. (2012) J. Am. Chem. Soc., 134:12426-12429). In brief, logarithmic phase bacterial cultures (i.e., optical density at 600 nm≈0.5) were diluted to OD600 0.001 and partitioned into a 96-well polystyrene microplate at 90 μL per well. After treatment with 10 μL of peptide solutions two fold diluted to various concentrations, microplates were incubated at 37° C. overnight and read on a ChroMate® 4300 Microplate Reader at 630 nm (GMI, Ramsey, MN). […] To study the influence of medium conditions on the antimicrobial activity of peptides against S. aureus USA300, up to 200 mM sodium chloride (NaCl), 2 mM of calcium chloride, 5-10% of human serum, mouse plasma, fluid, or supernatants of tissue homogenates were included into the assays.

E. coli E423-17 = assay: microbe, parasite or virus in culture; assay type: cell-based, Escherichia coli; settings: E423-17; read-out: MIC E. coli E423-17
Method in brief: as §1

[2] = test system: trypsin, chymotrypsin, S. aureus V8 protease, Proteinase K
Experimental: Briefly, a solution (100 μL) of peptide/protease molar ratio, 40:1 was made in 10 mM PBS buffer (pH 8.0) and was incubated at 37° C. Aliquots (10 μL) of the reaction solutions were taken after 1, 3 and 6 days and immediately mixed with 20 μL of 2×SDS loading buffer and boiled in a water bath to stop the reaction. For the SDS gel analysis, 10 μL of each sample was loaded to the well of a 5% stacking/18% resolving tricine gel and run at a constant current of 35 mA.

S. aureus USA300 [3] = settings: starting template; cited from earlier work

Row | Compound | MIC (S. aureus M838-17 (MRSA)) [µM] | MIC (S. aureus USA300 [1]; USA300) [µM] | MIC (S. aureus USA300 [1]; USA300, pH 6.8) [µM] | MIC (S. aureus USA300 [1]; USA300, pH 7.4) [µM] | MIC (S. aureus USA300 [1]; USA300, pH 8) [µM] | MIC PA (P. aeruginosa PAO1) (P. aeruginosa PAO1) [µM] | MIC EC (E. coli ATCC 25922) (E. coli ATCC 25922) [µM] | HC50 at 1 h (Hemolytic assay) [µM] | MIC E. faecium V286-17 (VRE) (E. faecium V286-17 (VRE)) [µM] | MIC (P. aeruginosa E411-17) [µM] | MIC (K. pneumoniae E406-17) [µM] | MIC E. coli ampC E416-7 (E. coli ampC E416-7) [µM] | MIC (E. coli E423-17) [µM] | Protease stability [2] | MIC against MRSA (S. aureus USA300 [3]) [µM]
1 | CC(C)C[C@@H](NC(=O)[C@@H](CC(C)C)NC(=O)[C@@H](CCCCN)NC(=O)[C@@H](CC(C)C)NC(=O)CNC(=O)[C@@H](CC(C)C)NC(=O)[C@@H](CO)NC(=O)[C@@H](CC(C)C)NC(=O)[C@@H](CC(C)C)NC(=O)[C@@H](CC(C)C)NC(=O)[C@@H](CCCCN)NC(=O)[C@@H](CC(C)C)NC(=O)CN)C(N)=O [DFT561d, GLKLLLSLGLKLL] (H-G[dL][dK][dL][dL][dL][dS][dL]G[dL][dK][dL][dL]-NH2; N-terminus and C-terminus assumed) | 3.1 (≈ 4.28 µg/mL) | 3.1 (≈ 4.28 µg/mL) | 3.1 (≈ 4.28 µg/mL) | 1.6 (≈ 2.21 µg/mL) | 1.6 (≈ 2.21 µg/mL) | >25 | >25 | > 300 | 3.1 to 6.25 | >50 | >50 | >50 | >50 | resistant to proteases | –
2 | temporin-SHf | – | – | – | – | – | – | – | – | – | – | – | – | – | – | 25
